Assay results published in ChEMBL document CHEMBL1141898, “Halogenated and isosteric cytisine derivatives with increased affinity and functional activity at nicotinic acetylcholine receptors” (Bioorg Med Chem Lett, 2005).

How the values were obtained:
[1] = biological target: Neuronal acetylcholine receptor; alpha3/beta4 (Rattus norvegicus, UniProt P04757+P12392); experiment: Effective concentration in KXalpha-3-beta-4R2 cells expressing rat nicotinic acetylcholine receptor alpha3-beta4 subunits; assay type: functional, cell-based
[2] = biological target: T1, Acetylcholine receptor; alpha1/beta1/delta/gamma (Homo sapiens, UniProt P02708+P07510+P11230+Q07001); experiment: Percentage efficacy in TE671 cells expressing acetylcholine neuromuscular receptor as change in membrane potential; assay type: functional, cell-based; conditions: TE-671
[3] = biological target: T2, Neuronal acetylcholine receptor; alpha4/beta2 (Homo sapiens, UniProt P17787+P43681); experiment: Percentage efficacy in K-177 cells expressing acetylcholine central neuronal receptor type alpha-4 beta2 subunits as change in membrane potential; assay type: functional, cell-based
[4] = biological target: T3, Neuronal acetylcholine receptor; alpha3/beta4 (Rattus norvegicus) (UniProt P04757+P12392); experiment: Percentage efficacy in KXalpha-3-beta-4R2 cells expressing rat nicotinic acetylcholine receptor alpha-3 beta4 subunits relative to (1)-epibatidine; assay type: functional, cell-based
[5] = biological target: T1, Acetylcholine receptor; alpha1/beta1/delta/gamma; experiment: Change in membrane potential in TE-671 cells expressing acetylcholine neuromuscular receptors; assay type: functional, cell-based
[6] = biological target: Neuronal acetylcholine receptor; alpha4/beta2 (Rattus norvegicus) (UniProt P09483+P12390); experiment: Binding affinity (Ki) for rat brain nicotinic receptors […] alpha-4 and beta2 subunits versus 0.5 nM [3H](1)-epibatidine
[7] = biological target: T3, Neuronal acetylcholine receptor; alpha3/beta4 (Rattus norvegicus); experiment: Binding affinity (Ki) for rat nicotinic acetylcholine receptor alpha3-beta4 subunits versus 0.5 nM [3H](1)-epibatidine; assay type: protein-complex assay
[8] = biological target: T2, Neuronal acetylcholine receptor; alpha4/beta2; experiment: Change in membrane potential in K-177 cells expressing acetylcholine central neuronal receptor alpha4-beta2 subunits; assay type: functional, cell-based

T2 sequence (P17787 whole entry): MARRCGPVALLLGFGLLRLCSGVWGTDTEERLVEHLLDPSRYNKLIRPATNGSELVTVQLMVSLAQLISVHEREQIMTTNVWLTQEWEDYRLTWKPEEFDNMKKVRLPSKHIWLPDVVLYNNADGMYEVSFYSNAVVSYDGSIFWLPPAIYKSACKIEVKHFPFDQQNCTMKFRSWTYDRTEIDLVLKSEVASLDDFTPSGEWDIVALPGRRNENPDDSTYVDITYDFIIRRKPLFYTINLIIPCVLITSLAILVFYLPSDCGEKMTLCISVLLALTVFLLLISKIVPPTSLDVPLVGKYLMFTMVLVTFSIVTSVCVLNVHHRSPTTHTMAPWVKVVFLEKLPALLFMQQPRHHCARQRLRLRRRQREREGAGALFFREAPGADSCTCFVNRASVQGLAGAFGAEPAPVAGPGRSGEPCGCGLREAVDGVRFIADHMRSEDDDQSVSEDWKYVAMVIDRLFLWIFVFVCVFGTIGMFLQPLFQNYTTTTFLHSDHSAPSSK
T2 sequence (P43681 whole entry): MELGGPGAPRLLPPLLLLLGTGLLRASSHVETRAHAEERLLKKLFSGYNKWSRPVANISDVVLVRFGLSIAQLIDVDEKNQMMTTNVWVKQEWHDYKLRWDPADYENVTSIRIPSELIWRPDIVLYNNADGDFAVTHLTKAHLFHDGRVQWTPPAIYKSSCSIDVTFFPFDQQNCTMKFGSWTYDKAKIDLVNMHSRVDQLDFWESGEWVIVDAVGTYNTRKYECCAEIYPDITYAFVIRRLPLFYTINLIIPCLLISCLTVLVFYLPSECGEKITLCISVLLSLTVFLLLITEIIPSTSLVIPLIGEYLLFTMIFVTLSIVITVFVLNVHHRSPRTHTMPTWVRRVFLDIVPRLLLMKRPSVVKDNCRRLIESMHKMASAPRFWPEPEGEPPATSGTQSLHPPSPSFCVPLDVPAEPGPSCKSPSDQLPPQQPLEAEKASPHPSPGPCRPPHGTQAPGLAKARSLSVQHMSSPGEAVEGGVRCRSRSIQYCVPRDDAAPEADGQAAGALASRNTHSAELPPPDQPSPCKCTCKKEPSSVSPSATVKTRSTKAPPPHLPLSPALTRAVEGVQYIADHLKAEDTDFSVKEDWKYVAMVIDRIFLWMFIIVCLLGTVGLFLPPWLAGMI
T1 sequence (P02708 whole entry): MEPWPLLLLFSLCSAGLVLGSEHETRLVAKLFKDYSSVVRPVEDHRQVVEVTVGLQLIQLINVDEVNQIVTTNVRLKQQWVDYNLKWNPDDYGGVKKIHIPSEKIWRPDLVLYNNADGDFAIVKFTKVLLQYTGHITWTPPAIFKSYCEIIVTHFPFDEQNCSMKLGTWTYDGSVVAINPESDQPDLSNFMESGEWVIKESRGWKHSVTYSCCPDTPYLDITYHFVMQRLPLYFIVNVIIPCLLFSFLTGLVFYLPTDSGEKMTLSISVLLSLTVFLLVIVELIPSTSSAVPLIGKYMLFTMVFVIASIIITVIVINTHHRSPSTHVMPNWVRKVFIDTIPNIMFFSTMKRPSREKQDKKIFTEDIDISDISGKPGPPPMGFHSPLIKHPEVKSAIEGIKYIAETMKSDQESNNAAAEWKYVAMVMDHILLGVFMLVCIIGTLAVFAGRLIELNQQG
T1 sequence (P07510 whole entry): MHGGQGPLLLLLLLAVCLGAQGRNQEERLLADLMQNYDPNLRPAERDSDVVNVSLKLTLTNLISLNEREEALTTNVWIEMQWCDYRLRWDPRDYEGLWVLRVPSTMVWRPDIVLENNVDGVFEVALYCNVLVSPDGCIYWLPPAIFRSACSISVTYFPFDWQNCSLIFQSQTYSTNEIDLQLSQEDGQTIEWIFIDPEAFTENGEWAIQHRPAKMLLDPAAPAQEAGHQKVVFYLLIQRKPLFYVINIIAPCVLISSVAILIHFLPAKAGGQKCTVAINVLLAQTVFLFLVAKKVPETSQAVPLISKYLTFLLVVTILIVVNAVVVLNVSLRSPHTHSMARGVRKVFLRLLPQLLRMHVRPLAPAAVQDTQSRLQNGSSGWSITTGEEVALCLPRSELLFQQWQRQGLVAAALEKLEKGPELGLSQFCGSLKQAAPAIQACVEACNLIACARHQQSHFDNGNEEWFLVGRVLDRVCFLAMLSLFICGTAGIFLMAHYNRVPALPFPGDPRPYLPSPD
T1 sequence (P11230 whole entry): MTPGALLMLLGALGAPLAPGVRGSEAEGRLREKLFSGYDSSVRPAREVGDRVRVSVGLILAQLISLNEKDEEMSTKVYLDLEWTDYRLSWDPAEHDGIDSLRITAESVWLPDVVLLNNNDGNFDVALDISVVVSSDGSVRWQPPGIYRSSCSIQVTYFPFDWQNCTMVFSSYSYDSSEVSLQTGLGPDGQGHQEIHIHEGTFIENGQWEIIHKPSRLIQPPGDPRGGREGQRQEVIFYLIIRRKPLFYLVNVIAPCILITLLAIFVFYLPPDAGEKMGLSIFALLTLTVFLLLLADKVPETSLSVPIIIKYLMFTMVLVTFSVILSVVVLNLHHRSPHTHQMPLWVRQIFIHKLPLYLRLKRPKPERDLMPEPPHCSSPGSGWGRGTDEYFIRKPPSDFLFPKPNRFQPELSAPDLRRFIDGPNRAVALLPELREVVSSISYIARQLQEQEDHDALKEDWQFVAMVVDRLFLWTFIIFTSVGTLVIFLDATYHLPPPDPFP
T1 sequence (Q07001 whole entry): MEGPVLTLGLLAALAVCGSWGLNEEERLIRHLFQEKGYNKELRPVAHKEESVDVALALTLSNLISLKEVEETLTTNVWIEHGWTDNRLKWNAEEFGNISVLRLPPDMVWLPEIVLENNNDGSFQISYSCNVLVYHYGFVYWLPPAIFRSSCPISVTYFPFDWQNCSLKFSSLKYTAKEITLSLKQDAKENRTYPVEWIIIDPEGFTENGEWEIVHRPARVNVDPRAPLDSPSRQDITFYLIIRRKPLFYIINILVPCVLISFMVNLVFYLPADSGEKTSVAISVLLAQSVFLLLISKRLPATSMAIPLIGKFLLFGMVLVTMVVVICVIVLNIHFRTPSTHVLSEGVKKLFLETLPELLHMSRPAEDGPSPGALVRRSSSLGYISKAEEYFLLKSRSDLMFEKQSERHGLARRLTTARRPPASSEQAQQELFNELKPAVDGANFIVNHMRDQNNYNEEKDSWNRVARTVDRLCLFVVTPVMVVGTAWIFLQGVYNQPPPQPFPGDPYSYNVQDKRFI
Sequence of Neuronal acetylcholine receptor; alpha3/beta4 (P04757 whole entry): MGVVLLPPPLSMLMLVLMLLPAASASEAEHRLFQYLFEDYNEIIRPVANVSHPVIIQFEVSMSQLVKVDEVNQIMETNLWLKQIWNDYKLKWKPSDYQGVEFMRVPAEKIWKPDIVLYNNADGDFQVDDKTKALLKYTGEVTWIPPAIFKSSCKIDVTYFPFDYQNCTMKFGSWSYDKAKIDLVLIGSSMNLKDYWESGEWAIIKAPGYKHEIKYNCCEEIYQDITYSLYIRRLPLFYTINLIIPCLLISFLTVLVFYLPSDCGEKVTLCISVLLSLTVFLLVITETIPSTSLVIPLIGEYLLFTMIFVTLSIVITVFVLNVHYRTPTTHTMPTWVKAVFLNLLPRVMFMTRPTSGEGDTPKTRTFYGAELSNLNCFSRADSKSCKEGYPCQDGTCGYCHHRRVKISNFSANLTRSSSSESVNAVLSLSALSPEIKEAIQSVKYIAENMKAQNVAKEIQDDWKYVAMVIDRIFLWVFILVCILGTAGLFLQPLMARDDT
Sequence of Neuronal acetylcholine receptor; alpha3/beta4 (P12392 whole entry): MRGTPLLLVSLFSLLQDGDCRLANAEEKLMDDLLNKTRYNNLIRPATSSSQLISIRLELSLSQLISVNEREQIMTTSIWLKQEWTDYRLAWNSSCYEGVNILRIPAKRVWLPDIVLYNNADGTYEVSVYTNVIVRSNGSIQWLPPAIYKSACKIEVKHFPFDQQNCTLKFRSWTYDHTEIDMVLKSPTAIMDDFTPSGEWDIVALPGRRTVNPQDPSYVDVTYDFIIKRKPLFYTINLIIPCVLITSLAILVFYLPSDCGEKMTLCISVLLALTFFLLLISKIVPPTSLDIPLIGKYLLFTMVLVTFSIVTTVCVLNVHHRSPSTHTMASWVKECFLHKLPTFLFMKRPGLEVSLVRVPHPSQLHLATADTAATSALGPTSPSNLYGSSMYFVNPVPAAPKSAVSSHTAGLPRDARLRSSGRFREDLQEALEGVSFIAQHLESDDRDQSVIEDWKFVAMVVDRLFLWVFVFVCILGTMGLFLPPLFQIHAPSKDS

## O=c1c(I)ccc2n1CC1CNCC2C1 (configuration not stated)
[1]
  EC50: 0.55 nM
[2]
  Efficacy: 46%
[3]
  Efficacy: 92%
[4]
  Efficacy: 78%
[5]
  EC50: 45 nM
[6]
  Affinity: 0.017 nM
[7]
  Affinity: 7.4 nM
[8]
  EC50: 0.036 nM

## O=c1ccc(Cl)c2n1CC1CNCC2C1 (configuration not stated)
[1]
  EC50: > 100 nM
[2]
  Efficacy: < 10%
[3]
  Efficacy: 58%
[4]
  Efficacy: < 10%
[5]
  EC50: > 100 nM
[6]
  Affinity: 2.5 nM
[7]
  Affinity: 3900 nM
[8]
  EC50: 4 nM

## O=c1c(I)cc(I)c2n1CC1CNCC2C1 (configuration not stated)
[1]
  EC50: > 100000 nM
[2]
  Efficacy: < 10%
[3]
  Efficacy: 42%
[4]
  Efficacy: < 10%
[5]
  EC50: > 100 nM
[6]
  Affinity: 0.52 nM
[7]
  Affinity: 4200 nM
[8]
  EC50: 42 nM

## O=c1ccc(Br)c2n1CC1CNCC2C1 (configuration not stated)
[1]
  EC50: 39 nM
[2]
  Efficacy: < 10%
[3]
  Efficacy: 70%
[5]
  EC50: > 100 nM
[6]
  Affinity: 0.308 nM
[7]
  Affinity: 380 nM
[8]
  EC50: 1.1 nM

## C[N+]1(C)CC2CC(C1)c1cccc(=O)n1C2 (configuration not stated)
[1]
  EC50: > 100 nM
[2]
  Efficacy: 60%
[3]
  Efficacy: 70%
[4]
  Efficacy: 29%
[5]
  EC50: 37 nM
[6]
  Affinity: 0.238 nM
[7]
  Affinity: 1500 nM
[8]
  EC50: 41 nM

## S=c1cccc2n1CC1CNCC2C1 (configuration not stated)
[1]
  EC50: > 100 nM
[2]
  Efficacy: < 10%
[3]
  Efficacy: 28%
[4]
  Efficacy: 10%
[5]
  EC50: > 100 nM
[6]
  Affinity: 0.832 nM
[7]
  Affinity: 27000 nM
[8]
  EC50: 2.2 nM

## O=c1cccc2n1C[C@@H]1CNC[C@H]2C1 [CYTISINICLINE]
[1]
  EC50: 25 nM
[2]
  Efficacy: 55%
[3]
  Efficacy: 59%
[4]
  Efficacy: 62%
[5]
  EC50: 11 nM
[6]
  Affinity: 0.124 nM
[7]
  Affinity: 220 nM
[8]
  EC50: 0.42 nM

## O=c1c(Br)ccc2n1CC1CNCC2C1 (configuration not stated)
[1]
  EC50: 0.88 nM
[2]
  Efficacy: 59%
[3]
  Efficacy: 85%
[4]
  Efficacy: 74%
[5]
  EC50: 31 nM
[6]
  Affinity: 0.01 nM
[7]
  Affinity: 7.5 nM
[8]
  EC50: 0.05 nM

## Clc1ccc(C2CC3CCC2N3)cn1 (configuration not stated) [EPIBATIDINE]
[2]
  Efficacy: 100%
[3]
  Efficacy: 100%
[5]
  EC50: 0.053 nM
[6]
  Affinity: 0.0072 nM
[7]
  Affinity: 0.51 nM

## O=c1c(Br)cc(Br)c2n1CC1CNCC2C1 (configuration not stated)
[1]
  EC50: > 100 nM
[2]
  Efficacy: < 10%
[3]
  Efficacy: 23%
[4]
  Efficacy: < 10%
[5]
  EC50: > 100 nM
[6]
  Affinity: 10.8 nM
[7]
  Affinity: 45000 nM
[8]
  EC50: > 100 nM

## O=c1c(Cl)ccc2n1CC1CNCC2C1 (configuration not stated)
[1]
  EC50: 5.1 nM
[2]
  Efficacy: 53%
[3]
  Efficacy: 72%
[4]
  Efficacy: 71%
[5]
  EC50: 28 nM
[6]
  Affinity: 0.022 nM
[7]
  Affinity: 18 nM
[8]
  EC50: 0.11 nM

## O=c1c(Cl)cc(Cl)c2n1CC1CNCC2C1 (configuration not stated)
[1]
  EC50: > 100 nM
[2]
  Efficacy: 23%
[3]
  Efficacy: 20%
[4]
  Efficacy: < 10%
[5]
  EC50: > 100 nM
[6]
  Affinity: 2.5 nM
[7]
  Affinity: 39000 nM
[8]
  EC50: > 100 nM
